We go through eight compounds from patent publication US4740502A, “Semisynthetic erythromycin antibiotics” (Abbott Laboratories, priority 1986, dated 1988).

In brackets after ≈: the same amount, converted by molar mass.

For series [1], the system named is E. coli KNK 437. The series is described as follows: Agar dilution MIC, E. coli KNK 437. Particulars: Escherichia coli, KNK437, 22 h.
Series [2] concerns Klebsiella pneumoniae 8045. The series is described as follows: Agar dilution MIC, Klebsiella pneumoniae 8045. Particulars: Klebsiella pneumoniae, 8045, 22 h.
Series [3] concerns Micrococcus luteus 9341. Kind of series: Agar dilution MIC, Micrococcus luteus 9341. Particulars: Micrococcus luteus, 9341, 22 h.
Series [4] deals with Pseudomonas aeruginosa 5007. Kind of series: Agar dilution MIC, Pseudomonas aeruginosa 5007. Particulars: Pseudomonas aeruginosa, 5007, 22 h.
The subject of series [5] is Providencia stuartii CMX 640. Kind of series: Agar dilution MIC, Providencia stuartii CMX 640. Particulars: CMX640, 22 h.
The test system of series [6] is Staph. aureus CMX 686B. The series is described as follows: Agar dilution MIC, Staph. aureus CMX 686B. Particulars: Staphylococcus aureus, CMX686B, 22 h.
The subject of series [7] is Staph. epidermidis 3519. The series is described as follows: Agar dilution MIC, Staph. epidermidis 3519. Particulars: Staphylococcus epidermidis, 3519, 22 h.
For series [8], the system named is Pseudomonas aeruginosa K799/61. Kind of series: Agar dilution MIC, Pseudomonas aeruginosa K799/61. Particulars: K799/61, 22 h.
Series [9] has as its system Strep. pyogenes 930. Kind of series: Agar dilution MIC, Strep. pyogenes 930. Particulars: Streptococcus pyogenes, 930, 22 h.
Series [10] deals with Acinetobacter SP CMX 669. Kind of series: Agar dilution MIC, Acinetobacter SP CMX 669. Particulars: SPCMX669, 22 h.
For series [11], the system named is Pseudomonas aeruginosa K799/WT. Kind of series: Agar dilution MIC, Pseudomonas aeruginosa K799/WT. Particulars: 22 h.
Series [12] concerns Strep. pyogenes EES61. Kind of series: Agar dilution MIC, Strep. pyogenes EES61. Particulars: Streptococcus pyogenes, EES61, 22 h.
Series [13] deals with Strep. faecium ATCC 8043. Kind of series: Agar dilution MIC, Strep. faecium ATCC 8043. Particulars: Enterococcus faecium, ATCC8043, 22 h.
The test system of series [14] is Pseudomonas cepacia 2961. The series is described as follows: Agar dilution MIC, Pseudomonas cepacia 2961. Particulars: Burkholderia cepacia, 2961, 22 h.
Series [15] relates to E. coli SS. The series is described as follows: Agar dilution MIC, E. coli SS. Particulars: Escherichia coli, 22 h.
Series [16] relates to Micrococcus luteus 4698. The series is described as follows: Agar dilution MIC, Micrococcus luteus 4698. Particulars: Micrococcus luteus, 4698, 22 h.
In series [17] the test system is Staph. epidermidis 3519 RARI. Kind of series: Agar dilution MIC, Staph. epidermidis 3519 RARI. Particulars: Staphylococcus epidermidis, 22 h.
Series [18] relates to Staph. aureus A5177. The series is described as follows: Agar dilution MIC, Staph. aureus A5177. Particulars: Staphylococcus aureus, A5177, 22 h.
Series [19] deals with Ent. aerogenes ATCC 10348. The series is described as follows: Agar dilution MIC, Ent. aerogenes ATCC 10348. Particulars: Klebsiella aerogenes, ATCC10348, 22 h.
Series [20] concerns Strep. agalactiae CMX 508. Kind of series: Agar dilution MIC, Strep. agalactiae CMX 508. Particulars: Streptococcus agalactiae, CMX508, 22 h.
Series [21] concerns Pseudomonas aeruginosa BMH10. Kind of series: Agar dilution MIC, Pseudomonas aeruginosa BMH10. Particulars: BMH10, 22 h.
Series [22] concerns E. coli DC-2. Kind of series: Agar dilution MIC, E. coli DC-2. Particulars: Escherichia coli, DC2, 22 h.
In series [23] the test system is stomach, duodenum and jejunum. The series is described as follows: Gastrointestinal motility (stimulating activity) in a dog model, strain gauges. How it is done:
Contractions in the gut were recorded with surgically implanted strain gauges. The contractile scores were determined according to the method of Jacoby, et al., as described in "Gastrointestinal Actions of Metoclopramide," Gastroenterology, Vol. 52, No. 4 (1967), pp. 676-684 by giving a numerical score to the height of each recorded contraction in the one hour period after administration of the test compound. […] Ratios were calculated for the stomach, duodenum and jejunum, and a final arithmetic mean index was calculated and reported in Table I.

Series [24] relates to E. coli H560. The series is described as follows: Agar dilution MIC, E. coli H560. Particulars: Escherichia coli, H560, 22 h.
Series [25] concerns Strep. bovis A5169. Kind of series: Agar dilution MIC, Strep. bovis A5169. Particulars: Streptococcus equinus, A5169, 22 h.
Series [26] has as its system E. coli JUHL. The series is described as follows: Agar dilution MIC, E. coli JUHL. Particulars: Escherichia coli, 22 h.
Series [27] has as its system Staph. aureus ATCC 6538P. Kind of series: Agar dilution MIC, Staph. aureus ATCC 6538P. Particulars: Staphylococcus aureus, ATCC6538P, 22 h.
[28] abbreviates: 4 mg/kg intravenously, one hour period, mean of stomach, duodenum and jejunum ratios to erythromycin A lactobionate.

In the case of `CC[C@H]1OC(=O)[C@H](C)[C@@H](O[C@H]2C[C@@](C)(OC)[C@@H](OC(N)=O)[C@H](C)O2)[C@H](C)[C@@H](O[C@@H]2O[C@H](C)C[C@H](N(C)C)[C@H]2O)[C@](C)(OC)C[C@@H](C)C(=O)[C@H](C)[C@@H](O)[C@]1(C)O` [Example 1, 6-O-methyl-erythromycin A-4"-carbamate], the MIC is 25 µg/mL (≈ 31.6 µM) in series [1]; 50 µg/mL (≈ 63.2 µM) in [2]; 0.02 µg/mL (≈ 0.0253 µM) in series [3]; 50 µg/mL (≈ 63.2 µM) in series [4]; 100 µg/mL (≈ 126 µM) in [5]; 0.05 µg/mL (≈ 0.0632 µM) in series [6]. For the same compound, the MIC in series [7] is 0.05 µg/mL (≈ 0.0632 µM); in series [8], 1.56 µg/mL (≈ 1.97 µM); in series [9] it was > 100 µg/mL; in series [10], 6.2 µg/mL (≈ 7.84 µM); in [11], 50 µg/mL (≈ 63.2 µM); in series [12], 0.01 µg/mL (≈ 0.0126 µM). In addition, the MIC in [13] worked out at 0.05 µg/mL (≈ 0.0632 µM); in [14], 50 µg/mL (≈ 63.2 µM); in series [15], 0.2 µg/mL (≈ 0.253 µM); in series [16] it was 0.39 µg/mL (≈ 0.493 µM); in [17], 0.1 µg/mL (≈ 0.126 µM); in series [18], 0.39 µg/mL (≈ 0.493 µM). Further, the MIC turned out to be 25 µg/mL (≈ 31.6 µM) in series [19]; 0.02 µg/mL (≈ 0.0253 µM) in series [20]; 50 µg/mL (≈ 63.2 µM) in [21]; 50 µg/mL (≈ 63.2 µM) in series [22]; 6.2 µg/mL (≈ 7.84 µM) in [24]; 0.02 µg/mL (≈ 0.0253 µM) in series [25]. The MIC came out at 12.5 µg/mL (≈ 15.8 µM) in [26] and 0.02 µg/mL (≈ 0.0253 µM) in series [27]. Moreover, the “Gastrointestinal Motility Index” value in series [23] (setting [28]) amounted to 0.03.

Turning to `CC[C@H]1OC(=O)[C@H](C)[C@@H](O[C@H]2C[C@@](C)(OC)[C@@H](OC(N)=O)[C@H](C)O2)[C@H](C)[C@@H](O[C@@H]2O[C@H](C)C[C@H](N(C)C)[C@H]2O)[C@](C)(O)C[C@@H](C)C(=O)[C@H](C)[C@@H](O)[C@H]1C` [Example 2, Erythromycin B-4"-carbamate], the “Gastrointestinal Motility Index” value in series [23] (setting [28]) turned out to be 0.17.

Take `CC[C@H]1OC(=O)[C@H](C)[C@@H](O[C@H]2C[C@@](C)(OC)[C@@H](O)[C@H](C)O2)[C@H](C)[C@@H](O[C@@H]2O[C@H](C)C[C@H](N(C)C)[C@H]2O)[C@](C)(OC)C[C@@H](C)C(=O)[C@H](C)[C@@H](O)[C@]1(C)O` [6-O--Me--Ery A, 6-O-methyl erythromycin A]: in series [23] (in vivo, iv, 4 mg/kg), the “Gastrointestinal Motility Index” value stood at 0.37 and the “stimulation of the gastrointestinal tissues” value (shortened to “stimulation”) is on record as “less of a gastrointestinal response”.

For `CC[C@H]1OC(=O)[C@H](C)[C@@H](O[C@H]2C[C@@](C)(OC)[C@@H](OC(N)=O)[C@H](C)O2)[C@H](C)[C@@H](O[C@@H]2O[C@H](C)C[C@H](N(C)C)[C@H]2O)[C@](C)(O)C[C@@H](C)C(=O)[C@H](C)[C@@H](O)[C@]1(C)O` [Example 4, Erythromycin A-4"-carbamate], the “Gastrointestinal Motility Index” value in [23] (setting [28]) is given as 0.11.

As to `CC[C@H]1OC(=O)[C@H](C)[C@@H](O[C@H]2C[C@@](C)(OC)[C@@H](O)[C@H](C)O2)[C@H](C)[C@@H](O[C@@H]2O[C@H](C)C[C@H](N(C)C)[C@H]2O)[C@](C)(O)C[C@@H](C)C(=O)[C@H](C)[C@@H](O)[C@]1(C)O` [Erythromycin A], the MIC in series [4] is > 100 µg/mL; in [5], > 100 µg/mL; in series [7], 0.1 µg/mL (≈ 0.136 µM); in series [8], 1.56 µg/mL (≈ 2.13 µM); in series [9] it was > 100 µg/mL; in [10], 3.1 µg/mL (≈ 4.22 µM). Besides, the MIC was 50 µg/mL (≈ 68.1 µM) in [11], 0.05 µg/mL (≈ 0.0681 µM) in [13], 50 µg/mL (≈ 68.1 µM) in series [19] and 6.2 µg/mL (≈ 8.45 µM) in series [24].

For the compound `CC[C@H]1OC(=O)[C@H](C)[C@@H](O[C@H]2C[C@@](C)(OC)[C@@H](O)[C@H](C)O2)[C@H](C)[C@@H](O[C@@H]2O[C@H](C)C[C@H](N(C)C)[C@H]2O)[C@](C)(O)C[C@@H](C)C(=O)[C@H](C)[C@@H](O)[C@H]1C` [Ery B, erythromycin B], the “Gastrointestinal Motility Index” value in [23] (in vivo, iv, 4 mg/kg) is given as 2.47.

As for `CC[C@H]1OC(=O)[C@H](C)[C@@H](O[C@H]2C[C@@](C)(OC)[C@@H](O)[C@H](C)O2)[C@H](C)[C@@H](O[C@@H]2O[C@H](C)C[C@H](N(C)C)[C@H]2O)[C@](C)(O)C[C@@H](C)C(=O)[C@H](C)[C@@H](O)[C@]1(C)O` [erythromycin A lactobionate], in series [23] (in vivo, iv, 4 mg/kg), the “stimulation” value is “pronounced stimulation of the stomach, duodenum, jejunum and ileum”.

As for `CC[C@H]1OC(=O)[C@H](C)[C@@H](O[C@H]2C[C@@](C)(OC)[C@@H](O)[C@H](C)O2)[C@H](C)[C@@H](O[C@@H]2O[C@H](C)C[C@H](N(C)C)[C@H]2O)[C@](C)(O)C[C@@H](C)C(=O)[C@H](C)[C@@H](O)[C@H]1C` [erythromycin B lactobionate], the “stimulation” value in [23] (in vivo, iv, 4 mg/kg) was “pronounced stimulation of the stomach, duodenum, jejunum and ileum”.
